Data taken from patent publication US20260098034A1, “2H-BENZOTRIAZOLE DERIVATIVE, PREPARATION METHOD THEREFOR, AND PHARMACEUTICAL COMPOSITION CONTAINING SAME” (ORXES THERAPEUTICS CO., LTD., priority 2022, published 2026).
“And” between values parts separate entries of the source, which are not always exact repeats. Equal values may be shown once.

Test system: Wistar rats
Assay: PCA-induced Wistar rat premature ejaculation model
Assay type: in vivo
Details: for Actual number of ejaculations / Number of the seminal vesicle contractions / Seminal vesicle basal pressure / Seminal vesicle peak pressure / The first contraction latency period / The first ejaculation latency period: within 30 min after PCA induction, individual rats; for latency period of initial seminal vesicle contraction compared with the PE model group: FIG. 4
Experimental: Male Wistar rats with a weight of about 300 g were adapted for one week before the experiment was started. On the day of the experiment, the animals were anesthetized with a combination of 20 mg/kg of Zoletil 50 via i.p. and 8 mg/kg of xylazine via i.p., and the body temperature was maintained at 37° C. with a thermal insulation blanket. Exposed common carotid artery was intubated with PE50 to monitor real-time arterial pressure (i.e. systolic pressure, diastolic pressure, and mean arterial pressure). The seminal vesicles and cavernosal muscles of the animals were exposed. The stable baselines of the pressure of the seminal vesicle and the cavernosal myoelectricity were recorded for 10 min. Then the drug was administered through the tail vein for the dapoxetine group, and the tested compound was orally administered for the tested compound group (for the PE model group, the drug was replaced with a solvent). After 1 min, for inducing PE modeling, 5 mg/kg of PCA was injected intraperitoneally, and then the seminal vesicle pressure curve and the change of bulbospongiosus EMG were continuously recorded for 30 min.
• A. Within 30 min, the actual number of ejaculations of the animals and the latency period of the first ejaculation; • B. Within 30 min, the number of the seminal vesicle contractions, the latency period of the first contraction, the basal pressure and the peak pressure.
The experimental data were expressed by means±S.E.M., and statistical analysis was performed by GraphPad Prism 7.0 software. Single factor variance analysis (One-way ANOVA) was used for comparison between multiple groups, and Dunnett't-test was used for statistical analysis in Post hoc test. Student's t-test was used for comparison between two groups. P<0.05 was considered as a significant difference.

[1] = 0.125 mg/kg p.o. + PCA 5 mg/kg i.p.
[2] = 0.5 mg/kg p.o. + PCA 5 mg/kg i.p.
[3] = 2 mg/kg p.o. + PCA 5 mg/kg i.p.

Row | SMILES | Actual number of ejaculations [1] | Number of the seminal vesicle contractions [1] | Seminal vesicle basal pressure [1] | Seminal vesicle peak pressure [1] | The first contraction latency period [1] | The first ejaculation latency period [1] | Actual number of ejaculations [2] | Number of the seminal vesicle contractions [2] | Seminal vesicle basal pressure [2] | Seminal vesicle peak pressure [2] | The first contraction latency period [2] | The first ejaculation latency period [2] | Actual number of ejaculations [3] | Number of the seminal vesicle contractions [3] | Seminal vesicle basal pressure [3] | Seminal vesicle peak pressure [3] | The first contraction latency period [3] | The first ejaculation latency period [3] | also measured
1 | Fc1ccc2c(C3CCN(CCCn4nc5ccccc5n4)CC3)noc2c1 [Compound A002] | 2 (2×) and 6 and 3 and 5 | 5 (2×) and 6 (2×) and 3 | 5.88 mmHg and 6.10 mmHg and 6.02 mmHg and 4.66 mmHg and 3.97 mmHg | 12.33 mmHg and 16.17 mmHg and 18.07 mmHg and 12.06 mmHg and 9.88 mmHg | 1266 s and 833 s and 825 s and 1198 s and 1499 s | 1422 s and 933 s and 966 s and 1276 s and 1345 s | 2 and 3 and 1 and 0 (2×) | 3 and 4 and 2 and 0 (2×) | 5.76 mmHg and 5.88 mmHg and 5.79 mmHg and 3.67 mmHg and 3.87 mmHg | 12.54 mmHg and 11.66 mmHg and 7.05 mmHg and 4.27 mmHg and 5.11 mmHg | 1176 s and 1307 s and 1355 s and 1800 s (2×) | 1233 s and 1346 s and 1432 s and 1800 s (2×) | 0 | 2 and 0 (4×) | 4.15 mmHg and 4.12 mmHg and 4.85 mmHg and 4.11 mmHg and 3.93 mmHg | 8.87 mmHg and 6.08 mmHg and 5.09 mmHg and 4.77 mmHg and 5.03 mmHg | 1568 s and 1800 s (4×) | 1800 s | latency period of initial seminal vesicle contraction compared with the PE model group (high dose group (2.0 mg/kg p.o.)): significant increase; latency period of initial seminal vesicle contraction compared with the PE model group (low dose group (0.125 mg/kg p.o.), P>0.05): no statistically significant differences; latency period of initial seminal vesicle contraction compared with the PE model group (medium dose group (0.5 mg/kg p.o.)): significant increase
2 | c1ccc2nn(CCCCN3CCN(c4noc5ccccc45)CC3)nc2c1 [Compound A001] | 8 and 9 and 11 (2×) and 10 | 10 and 11 and 12 and 13 and 16 | 6.69 mmHg and 7.04 mmHg and 7.28 mmHg and 6.91 mmHg and 7.78 mmHg | 17.17 mmHg and 21.45 mmHg and 22.67 mmHg and 23.39 mmHg and 20.58 mmHg | 784 s and 788 s and 605 s and 517 s and 839 s | 996 s and 726 s and 766 s and 823 s and 969 s | 0 (2×) and 2 (2×) and 3 | 0 (2×) and 5 and 4 and 6 | 3.88 mmHg and 4.19 mmHg and 5.77 mmHg and 5.08 mmHg and 5.68 mmHg | 4.89 mmHg and 5.09 mmHg and 11.06 mmHg and 16.57 mmHg and 14.89 mmHg | 1800 s (2×) and 1298 s and 1147 s and 1125 s | 1800 s (2×) and 1399 s and 1311 s and 1291 s | 2 and 0 (4×) | 4 and 0 and 1 (3×) | 6.88 mmHg and 4.68 mmHg and 4.38 mmHg and 4.92 mmHg and 3.98 mmHg | 18.65 mmHg and 6.99 mmHg and 6.07 mmHg and 7.32 mmHg and 6.05 mmHg | 968 s and 1800 s and 1687 s and 1774 s and 1629 s | 1055 s and 1800 s (4×) | –
3 | Fc1ccc2c(N3CCN(CCCn4nc5ccccc5n4)CC3)noc2c1 [Compound A005] | 0 (2×) and 4 (2×) and 5 | 2 and 3 and 6 and 8 and 7 | 3.99 mmHg and 3.98 mmHg and 5.98 mmHg and 5.59 mmHg and 5.18 mmHg | 4.09 mmHg and 4.29 mmHg and 16.56 mmHg and 17.17 mmHg and 18.08 mmHg | 1458 s and 1525 s and 707 s and 658 s and 738 s | 1800 s (2×) and 965 s and 878 s and 806 s | 5 (2×) and 3 and 0 (2×) | 6 and 7 and 4 and 0 (2×) | 5.89 mmHg and 6.05 mmHg and 5.15 mmHg and 3.93 mmHg and 4.22 mmHg | 18.99 mmHg and 19.11 mmHg and 12.85 mmHg and 4.09 mmHg and 4.76 mmHg | 778 s and 855 s and 1005 s and 1800 s (2×) | 845 s and 903 s and 1175 s and 1800 s (2×) | 0 | 0 (4×) and 1 | 4.16 mmHg and 4.27 mmHg and 4.65 mmHg and 4.32 mmHg and 3.93 mmHg | 5.26 mmHg and 5.22 mmHg and 7.15 mmHg and 4.83 mmHg and 4.89 mmHg | 1800 s (4×) and 1655 s | 1800 s | –
4 | Fc1ccc2c(N3CCN(CCCCn4nc5ccccc5n4)CC3)noc2c1 [Compound A006] | 0 and 1 and 4 (2×) and 5 | 2 (2×) and 7 (2×) and 8 | 3.93 mmHg and 3.88 mmHg and 5.98 mmHg and 5.79 mmHg and 5.18 mmHg | 4.11 mmHg and 4.21 mmHg and 16.58 mmHg and 15.19 mmHg and 17.07 mmHg | 1453 s and 1325 s and 707 s and 758 s and 738 s | 1800 s and 1330 s and 877 s and 798 s and 808 s | 6 and 4 and 2 and 0 (2×) | 8 and 6 and 3 and 0 (2×) | 5.86 mmHg and 6.06 mmHg and 5.12 mmHg and 3.91 mmHg and 4.25 mmHg | 18.66 mmHg and 20.61 mmHg and 12.89 mmHg and 4.19 mmHg and 4.79 mmHg | 899 s and 816 s and 1022 s and 1800 s (2×) | 855 s and 903 s and 1175 s and 1800 s (2×) | 0 | 0 (4×) and 1 | 4.66 mmHg and 4.16 mmHg and 4.65 mmHg and 4.67 mmHg and 3.98 mmHg | 5.13 mmHg and 5.28 mmHg and 4.97 mmHg and 4.79 mmHg and 7.87 mmHg | 1800 s (4×) and 1660 s | 1800 s | –
5 | Fc1ccc2c(C3CCN(CCCCn4nc5ccccc5n4)CC3)noc2c1 [Compound A003] | 0 (2×) and 4 (2×) and 5 | 3 (2×) and 8 (2×) and 7 | 3.97 mmHg and 3.78 mmHg and 5.98 mmHg and 5.59 mmHg and 5.17 mmHg | 4.08 mmHg and 4.25 mmHg and 16.58 mmHg and 14.17 mmHg and 18.06 mmHg | 1458 s and 1525 s and 707 s and 658 s and 735 s | 1800 s (2×) and 865 s and 778 s and 806 s | 6 (2×) and 2 and 0 (2×) | 9 (2×) and 5 and 0 (2×) | 5.88 mmHg and 6.03 mmHg and 5.19 mmHg and 3.9 mmHg and 4.2 mmHg | 18.97 mmHg and 20.11 mmHg and 12.84 mmHg and 4.09 mmHg and 4.76 mmHg | 778 s and 814 s and 1009 s and 1800 s (2×) | 845 s and 903 s and 1175 s and 1800 s (2×) | 0 | 1 and 0 (4×) | 4.65 mmHg and 4.17 mmHg and 4.55 mmHg and 4.62 mmHg and 3.92 mmHg | 8.13 mmHg and 5.24 mmHg and 4.9 mmHg and 4.89 mmHg and 4.86 mmHg | 1623 s and 1800 s (4×) | 1800 s | –
